In EP1401829B1, “NOVEL HETEROCYCLIC ANTIBACTERIAL COMPOUNDS” (Microbiotix, Inc., priority 2001, dated 2002):
Values after ≈ are worked out from the molar mass of the structure shown. Marks after values point to notes of the source that are not given here.

What was measured:
[1] = Overt toxicity observed in mouse infection models; format: in vivo; details: mice; at therapeutic doses (doses providing survival above no treatment control)
Description: (§1) Using the same basic procedure as described above, the in vivo efficacy of Compound 70 was also evaluated at various doses in mice infected with S. aureaus (Smith), MRSA 1094, Enterococcus faecalis, or vancomycin-resistant Enterococcus faecalis strain VRE 700802. […] Negative controls were mice infected that received no treatment. Mucin was employed as an adjuvant to facilitate bacterial infection in mice, where indicated.

[2] = test system: Staphylococcus aureus (Smith); test: In vivo efficacy of Compound 70 in mouse models; details: mice, 10^8 CFU/mouse, regimen 1 (t=0)
Description: (§2) Swiss Webster mice, ca. 20 g each, were infected with Staphylococcus aureus (Smith strain) by the intraperitoneal route. Test compounds (2, 4, 5, 6, 7, 8, 10, 12) were dissolved in 10% dimethylsulfoxide in peanut oil to a concentration of 2 mg/ml. Vancomycin was used as positive control drug (i.e., protection from lethal infection). Fifteen minutes after infection, test compounds, vancomycin, or vehicle alone were given intraperitoneally to groups of five mice each. Animals were monitored for three days, and the number of mice surviving was tabulated for each treatment.
as §1

[3] = test system: Enterococcus faecalis (ATCC 29212); test: In vivo efficacy of Compound 70 in mouse models; details: mice, 3x10^7 CFU/mouse + 5% Mucin
Description: as §2, §1

[4] = test system: Staphylococcus aureus (Smith strain); test: Protection of mice from lethal intraperitoneal infection, compound given intraperitoneally; format: in vivo; details: Swiss Webster mice, groups of five, 15 minutes after infection
Description: • Figures 1A and 1B. Figure 1A is a diagram of the structural formula for Compound 2 (i.e., 3-{4-[1-(1-cyclopropyl-3-carboxy-4-oxo-6-fluoro-7-quinolyl)-4-piperazinyl]butyl}-6-(3-ethyl- 4-methylanilino)uracil). • Figure 1B is a bar graph showing number of survivors in each group of five mice at 24 hours after intraperitoneal infection with 1 x 10^8 colony forming units (CFU) of Staphylococcus aureus (Smith strain) and followed 15 minutes post infection by administration of Compound 2 at a dose of 0 (Vehicle Control), 1, 3, and 10 mg of compound per kg of body weight. Vancomycin at a dose of 10 mg/kg of body weight served as a positive control for antibiotic activity. See text for details. • Figures 2A and 2B. Figure 2A is a diagram of the structural formula for Compound 10 (i.e., 3-{4-[1-(1-cyclopropyl-3-carboxy-4-oxo-6-fluoro-7-quinolyl)-4-piperazinyl]butyl}-6-(3-ethyl-4-methylanilino)uracil methanesulfonate). • Figure 2B is a bar graph showing number of survivors of a group of five mice at 24 hours after intraperitoneal infection with Staphylococcus aureus (Smith strain) as in Figure 1B, except that Compound 10 was administered to each animal at 0, 0.1, 0.3, 1.0, 3.0, and 10 mg/kg body weight at 15 minutes post infection. Controls were the same as in Figure 1B. See text for details. • Figures 3A and 3B. […] Abbreviations: cPr is cyclopropyl; Et is ethyl; dFPh is 2,4-difluorophenyl. • Figure 3B is a bar graph showing number of survivors in each group of five mice at 24 hours after intraperitoneal infection with Staphylococcus aureus (Smith strain) as in Figure 1, except that 15 minutes after infection, the mice in each group received a dose of 0.5 mg/kg of body weight of compound 10, 4, 5, 6, 7, 8, or 12. Controls were the same as in Figure 1. See text for details.
as §2

MSSA108 = test: MIC against clinically relevant strains; format: cell-based; details: Staphylococcus aureus; methicillin sensitive S. aureus strain
[5] = dosage range 1-10 mg/kg body weight intraperitoneally

Row | Compound | overt toxicity [1] | % Survival at 72 hours ([2]; dose 3.125 mg/kg) | % Survival at 72 hours ([2]; dose 12.5 mg/kg) | % Survival at 72 hours ([2]; dose 25 mg/kg) | % Survival at 72 hours ([2]; dose 50 mg/kg) | % Survival at 72 hours ([3]; dose 25 mg/kg, regimen 1 (t=0)) | % Survival at 72 hours ([3]; dose 25 mg/kg, regimen 2 (t=0,2)) | % Survival at 72 hours ([3]; dose 50 mg/kg, regimen 1 (t=0)) | % Survival at 72 hours ([3]; dose 50 mg/kg, regimen 2 (t=0,2)) | % Survival at 72 hours ([3]; dose 75 mg/kg, regimen 1 (t=0)) | protection of infected mice (number of survivors) [4, 5] | MIC (MSSA108) [µg/mL] | protection of infected mice (number of survivors) ([4]; 0.3 mg per kg body weight intraperitoneally) | protection of infected mice (number of survivors) ([4]; 1 mg/kg or higher intraperitoneally)
1 | CCc1cc(Nc2cc(=O)n(CCCCN3CCN(c4c(F)cc5c(=O)c(C(=O)O)cn(C6CC6)c5c4F)CC3C)c(=O)[nH]2)ccc1C (stereo not shown) [Compound 70, 3-{4-[1-(1-cyclopropyl-3-carboxy-4-oxo-6,8-difluoro-7-quinolyl)-3-methyl-4-piperazinyl]butyl}-6-(3-ethyl-4-methylanilino)uracil] | no overt toxicity | 0% (0/5) | 40% (6/15) | 100% (20/20)** | 100% (10/10)** | 40% (2/5) | 40% (2/5) | 60% (3/5) | 80% (8/10)** | 80% (4/5) | – | – | – | –
2 | CCc1cc(Nc2cc(=O)n(CCCCN3CCN(c4cc5c(cc4F)c(=O)c(C(=O)O)cn5C4CC4)CC3)c(=O)[nH]2)ccc1C [Compound 2, 3-{4-[1-(1-cyclopropyl-3-carboxy-4-oxo-6-fluoro-7-quinolyl)-4-piperazinyl]butyl}-6-(3-ethyl-4-methylanilino)uracil] | – | – | – | – | – | – | – | – | – | – | all five | 0.313 (≈ 0.496 µM) | – | –
3 | CCc1cc(Nc2cc(=O)n(CCCCN3CCN(c4cc5c(cc4F)c(=O)c(C(=O)O)cn5C4CC4)CC3)c(=O)[nH]2)ccc1C.CS(=O)(=O)O [Compound 10, 3-{4-[1-(1-cyclopropyl-3-carboxy-4-oxo-6-fluoro-7-quinolyl)-4-piperazinyl]butyl}-6-(3-ethyl-4-methylanilino)uracil methanesulfonate] | – | – | – | – | – | – | – | – | – | – | provided protection in the same dosage range as Compound 2 | 0.625 | one of five | complete protection
